Assay results: article PMC9303458 (Chemmedchem, 2022)
Like-named read-outs stand apart in the source and are kept apart here. Values belong to the compound of their own block, whether it stands above or below them.

Columns and labels:
Caco‐2 cell monolayer [1] = assay: Caco‐2 cell permeability
[2] = Chemical stability in aqueous solution; type: physicochemical; details: percent of parent remaining after 60 min at 37 °C; mean ± SD, n=3
[3] = Metabolic stability in porcine liver S9 fraction; type: in vitro ADME; details: for Porcine liver S9 fraction Stability: percent of parent remaining after 30 min at 37 °C, mean ± SD, n=3
[4] = dogs, peroral application; cited from earlier work
[5] = rats, peroral application; cited from earlier work
[6] = Thermodynamic aqueous solubility; type: physicochemical; details: PBS pH 7.4, shaken 20 h, 20 °C; mean ± SD
[7] = Metabolic stability in porcine blood plasma; type: in vitro ADME; details: for Porcine blood plasma Stability: percent of parent remaining after 30 min at 37 °C, mean ± SD, n=3
human recombinant MAGL = molecular target: T1, human recombinant MAGL (Homo sapiens, UniProt Q99685); type: biochemical; details: for MAGL inhibition at 10 μM: highest test concentration
T1 sequence (Q99685 1-303): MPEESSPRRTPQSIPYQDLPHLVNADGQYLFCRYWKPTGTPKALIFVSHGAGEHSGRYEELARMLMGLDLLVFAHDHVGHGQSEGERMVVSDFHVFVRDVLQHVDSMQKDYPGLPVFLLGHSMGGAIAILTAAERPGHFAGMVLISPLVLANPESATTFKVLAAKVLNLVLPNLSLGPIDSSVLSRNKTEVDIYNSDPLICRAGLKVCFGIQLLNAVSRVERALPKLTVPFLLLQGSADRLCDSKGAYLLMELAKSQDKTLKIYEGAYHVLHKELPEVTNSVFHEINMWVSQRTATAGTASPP

[8] = molecular target: butyrylcholinesterase (BuChE) (Equus caballus, UniProt P81908); assay: Inhibition of BuChE, release of benzoic acid from benzoylcholine; type: biochemical, horse
[9] = molecular target: T2, fatty acid amide hydrolase (FAAH), rat brain homogenate (Rattus norvegicus, UniProt P97612); type: biochemical; details: for FAAH inhibition at 10 μM: highest test concentration; for inhibition at 10 µM: read-out: FAAH inhibition at 10 μM, 10 μM, highest test concentration
T2 sequence (P97612 1-579): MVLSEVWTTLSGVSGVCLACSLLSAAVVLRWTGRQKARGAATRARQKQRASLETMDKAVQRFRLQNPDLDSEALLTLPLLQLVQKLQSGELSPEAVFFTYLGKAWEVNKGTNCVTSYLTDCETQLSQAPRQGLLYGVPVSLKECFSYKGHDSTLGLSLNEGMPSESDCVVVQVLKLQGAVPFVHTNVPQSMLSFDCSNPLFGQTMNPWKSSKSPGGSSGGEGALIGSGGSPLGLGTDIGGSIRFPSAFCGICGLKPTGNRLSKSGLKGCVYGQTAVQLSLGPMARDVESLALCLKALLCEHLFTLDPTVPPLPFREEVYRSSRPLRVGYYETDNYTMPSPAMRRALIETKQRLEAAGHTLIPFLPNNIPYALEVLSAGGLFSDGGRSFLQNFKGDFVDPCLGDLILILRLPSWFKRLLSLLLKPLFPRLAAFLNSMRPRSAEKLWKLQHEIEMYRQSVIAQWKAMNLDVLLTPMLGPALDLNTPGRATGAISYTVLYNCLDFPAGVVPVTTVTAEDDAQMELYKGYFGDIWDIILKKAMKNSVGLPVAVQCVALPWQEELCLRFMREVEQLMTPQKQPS

Caco‐2 cell permeability = details: human, Caco-2, pH 7.4
Caco‐2 cell monolayer [10] = details: Caco‐2, comparable conditions; cited from earlier work

Chain of butyrylcholinesterase (BuChE) (P81908 whole entry): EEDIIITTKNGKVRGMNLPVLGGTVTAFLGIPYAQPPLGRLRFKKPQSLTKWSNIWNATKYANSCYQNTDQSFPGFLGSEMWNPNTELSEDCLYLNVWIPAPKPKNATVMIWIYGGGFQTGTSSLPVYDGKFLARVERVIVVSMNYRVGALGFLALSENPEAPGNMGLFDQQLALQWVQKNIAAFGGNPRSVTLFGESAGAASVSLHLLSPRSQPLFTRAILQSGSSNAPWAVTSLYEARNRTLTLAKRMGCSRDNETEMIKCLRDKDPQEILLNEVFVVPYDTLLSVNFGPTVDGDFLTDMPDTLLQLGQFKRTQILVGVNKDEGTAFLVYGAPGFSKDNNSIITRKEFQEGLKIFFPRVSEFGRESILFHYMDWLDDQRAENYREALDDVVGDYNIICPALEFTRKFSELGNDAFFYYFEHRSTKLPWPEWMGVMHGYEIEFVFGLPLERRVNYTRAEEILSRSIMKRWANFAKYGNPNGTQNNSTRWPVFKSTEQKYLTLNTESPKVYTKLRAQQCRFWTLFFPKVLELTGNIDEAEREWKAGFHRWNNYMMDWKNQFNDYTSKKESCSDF

IC50 [9]: 6300 nM
Compound: O=C(OC(C(F)(F)F)C(F)(F)F)N1CCC(CCCn2ccc3ccc(F)cc32)CC1 [Compound 28]

IC50 [9]: 2800 nM
Compound: O=C(OC(C(F)(F)F)C(F)(F)F)N1CCC(CCCCn2ccc3ccc(F)cc32)CC1 [Compound 32]

MAGL inhibition at 10 μM (human recombinant MAGL): inactive
FAAH inhibition at 10 μM [9]: inactive
Compound: O=C(OC(C(F)(F)F)C(F)(F)F)N(CCCCCn1ccc2ccc(F)cc21)C1CC1 [Compound 42]

FAAH inhibition at 10 μM [9]: no inhibitory activity
Compound: O=C(OC(C(F)(F)F)C(F)(F)F)N1CCC(Cn2ccc3ccccc32)CC1 [Compound 45]

FAAH inhibition at 10 μM [9]: no inhibitory activity
Compound: O=C(OC(C(F)(F)F)C(F)(F)F)N1CCC(Cn2ccc3c(F)cccc32)CC1 [Compound 48]

FAAH inhibition at 10 μM [9]: no inhibitory activity
Compound: O=C(OC(C(F)(F)F)C(F)(F)F)N1CCC(Cn2ccc3cccc(F)c32)CC1 [Compound 54]

IC50 [9]: > 10000 nM
inhibition at 10 µM [9]: ~25%
Compound: Cc1ccc2c(ccn2CC2CCN(C(=O)OC(C(F)(F)F)C(F)(F)F)CC2)c1 [Compound 57]

IC50 [9]: > 10000 nM
inhibition at 10 µM [9]: ~25%
Compound: COc1ccc2c(ccn2CC2CCN(C(=O)OC(C(F)(F)F)C(F)(F)F)CC2)c1 [Compound 60]

IC50 [9]: > 10000 nM
inhibition at 10 µM [9]: ~25%
Compound: N#Cc1ccc2c(ccn2CC2CCN(C(=O)OC(C(F)(F)F)C(F)(F)F)CC2)c1 [Compound 63]

IC50 [9]: 2100 nM
Compound: O=C(OC(C(F)(F)F)C(F)(F)F)N1CCC(CCn2ccc3ccccc32)CC1 [Compound 66]

IC50 [9]: 2500 nM
Compound: O=C(OC(C(F)(F)F)C(F)(F)F)N1CCC(CCn2ccc3c(F)cccc32)CC1 [Compound 69]

IC50 [9]: 2800 nM
Compound: O=C(OC(C(F)(F)F)C(F)(F)F)N1CCC(CCn2ccc3cc(F)ccc32)CC1 [Compound 72]

IC50 [9]: 1200 nM
Compound: O=C(OC(C(F)(F)F)C(F)(F)F)N1CCC(CCn2ccc3cccc(F)c32)CC1 [Compound 75]

IC50 [9]: 7500 nM
Compound: O=C(OC(C(F)(F)F)C(F)(F)F)N1CCC(CCn2ccc3cc(Cl)ccc32)CC1 [Compound 78]

IC50 [9]: > 10000 nM
Compound: Cc1ccc2c(ccn2CCC2CCN(C(=O)OC(C(F)(F)F)C(F)(F)F)CC2)c1 [Compound 81]

IC50 [9]: 8300 nM
Compound: COc1ccc2c(ccn2CCC2CCN(C(=O)OC(C(F)(F)F)C(F)(F)F)CC2)c1 [Compound 84]

IC50 [9]: > 10000 nM
Compound: N#Cc1ccc2c(ccn2CCC2CCN(C(=O)OC(C(F)(F)F)C(F)(F)F)CC2)c1 [Compound 87]

Decrease of activity towards MAGL relative to lead structure 24 (factor) (human recombinant MAGL; ratio of IC50 values): about 1.5
IC50 [9]: 2600 nM
Decrease of activity towards FAAH relative to lead structure 24 (factor) ([9]; ratio of IC50 values): ~2.5
Compound: O=C(OC(C(F)(F)F)C(F)(F)F)N1CCN(CCn2ccc3ccc(F)cc32)CC1 [Compound 92, 1,1,1,3,3,3‐Hexafluoropropan‐2‐yl 4‐[2‐(6‐fluoroindol‐1‐yl)ethyl]piperazine‐1‐carboxylate]

IC50 [9]: > 10000 nM
Compound: O=C(OC(C(F)(F)F)C(F)(F)F)N1CCC(CCn2nnc3ccccc32)CC1 [Compound 104]

FAAH inhibition at 10 μM [9]: ineffective
Compound: O=C(OC(C(F)(F)F)C(F)(F)F)N1CCC(Cn2cnc3ccccc32)CC1 [Compound 122]

Further lines, the compound ahead of its results:

Compound: O=C(OC(C(F)(F)F)C(F)(F)F)N1CCN(Cc2ccc(C(F)(F)F)cc2N2CCCC2)CC1 [ABX‐1431, reference compound]
Permeability coefficient pH 7.4 (Caco‐2 cell monolayer [1]; Caco‐2, 10 μM apical, 2 h, 37 °C, mean ± SD, n=3, n.d.: no permeation detectable): could not be detected
PBS‐buffer pH 7.4 Stability [2]: 90±5%
Porcine liver S9 fraction Stability [3]: 81±3%
Bioavailability [4]: more than 60%
Bioavailability [5]: more than 60%
Aqueous solubility pH 7.4 [6]: very low solubility
Porcine blood plasma Stability [7]: 95±2%

Compound: O=C(NCCCCCn1ccc2ccc(F)cc21)Oc1ccccc1 [Compound 6, phenyl N‐[5‐(6‐fluoroindol‐1‐yl)pentyl]carbamate]
MAGL inhibition at 10 μM (human recombinant MAGL): no inhibition

Compound: O=C(NCCCCCn1ccc2ccc(F)cc21)OC(C(F)(F)F)C(F)(F)F [Compound 11, 1,1,1,3,3,3‐Hexafluoropropan‐2‐yl N‐[5‐(6‐fluoroindol‐1‐yl)pentyl]carbamate]
IC50 [8]: 3500 nM
PBS‐buffer pH 7.4 Stability [2]: 95±4%
Porcine liver S9 fraction Stability [3]: 72±5%
IC50 [9]: 740 nM
Porcine blood plasma Stability [7]: 86±9%

Compound: O=C(NCCCCCCn1ccc2ccc(F)cc21)OC(C(F)(F)F)C(F)(F)F [Compound 13, 1,1,1,3,3,3‐Hexafluoropropan‐2‐yl N‐[6‐(6‐fluoroindol‐1‐yl)hexyl]carbamate]
IC50 [8]: 1800 nM
PBS‐buffer pH 7.4 Stability [2]: 95±3%
Porcine liver S9 fraction Stability [3]: 69±5%
IC50 [9]: 770 nM
Porcine blood plasma Stability [7]: 79±8%

Compound: O=C(NCCCCCCCn1ccc2ccc(F)cc21)OC(C(F)(F)F)C(F)(F)F [Compound 15]
IC50 [9]: 1000 nM

Compound: O=C(OC(C(F)(F)F)C(F)(F)F)N1CCC(Cn2ccc3ccc(F)cc32)CC1 [Compound 20, 1,1,1,3,3,3‐Hexafluoropropan‐2‐yl 4‐[(6‐fluoroindol‐1‐yl)methyl]piperidine‐1‐carboxylate]
PBS‐buffer pH 7.4 Stability [2]: > 95%
Porcine liver S9 fraction Stability [3]: 75±3%
FAAH inhibition at 10 μM [9]: no inhibitory activity
Porcine blood plasma Stability [7]: 82±6%

Compound: O=C(OC(C(F)(F)F)C(F)(F)F)N1CCC(CCn2ccc3ccc(F)cc32)CC1 [Compound 24, 1,1,1,3,3,3‐Hexafluoropropan‐2‐yl 4‐[2‐(6‐fluoroindol‐1‐yl)ethyl]piperidine‐1‐carboxylate]
PBS‐buffer pH 7.4 Stability [2]: 93±1%
Porcine liver S9 fraction Stability [3]: 68±7%
IC50 [9]: 1000 nM
Porcine blood plasma Stability [7]: 86±7%

Compound: CN(CCCCCn1ccc2ccc(F)cc21)C(=O)OC(C(F)(F)F)C(F)(F)F [Compound 35, 1,1,1,3,3,3‐Hexafluoropropan‐2‐yl N‐methyl‐N‐[5‐(6‐fluoroindol‐1‐yl)pentyl]carbamate]
inhibition at 10 µM (human recombinant MAGL; read-out: MAGL inhibition at 10 μM): ~30%
inhibition at 10 µM [9]: ~30%

Compound: CCN(CCCCCn1ccc2ccc(F)cc21)C(=O)OC(C(F)(F)F)C(F)(F)F [Compound 38, 1,1,1,3,3,3‐Hexafluoropropan‐2‐yl N‐ethyl‐N‐[5‐(6‐fluoroindol‐1‐yl)pentyl]carbamate]
MAGL inhibition at 10 μM (human recombinant MAGL): inactive
FAAH inhibition at 10 μM [9]: inactive

Compound: CC(C)N(CCCCCn1ccc2ccc(F)cc21)C(=O)OC(C(F)(F)F)C(F)(F)F [Compound 40]
MAGL inhibition at 10 μM (human recombinant MAGL): inactive
FAAH inhibition at 10 μM [9]: inactive

Compound: O=C(OC(C(F)(F)F)C(F)(F)F)N1CCC(CCn2cnc3ccccc32)CC1 [Compound 101, 1,1,1,3,3,3‐Hexafluoropropan‐2‐yl 4‐[2‐(benzimidazol‐1‐yl)ethyl]piperidine‐1‐carboxylate]
Papp A→B at 2 h, 10 µM (Caco‐2 cell permeability): 12.6 ± 1 ×10⁻⁶ cm/s
PBS‐buffer pH 7.4 Stability [2]: > 95%
Porcine liver S9 fraction Stability [3]: 82±7%
IC50 [9]: 1000 nM
Aqueous solubility pH 7.4 [6]: 6.1±0.5 μg/mL
Porcine blood plasma Stability [7]: 93±5%

Compound: O=C(OC(C(F)(F)F)C(F)(F)F)N1CCC(Cn2ccc3cccnc32)CC1 [Compound 125, 1,1,1,3,3,3‐Hexafluoropropan‐2‐yl 4‐[(7‐azaindol‐1‐yl)methyl]piperidine‐1‐carboxylate]
Papp A→B at 2 h, 10 µM (Caco‐2 cell permeability): 10 ×10⁻⁶ cm/s
PBS‐buffer pH 7.4 Stability [2]: 92±7%
Porcine liver S9 fraction Stability [3]: 75±8%
FAAH inhibition at 10 μM [9]: ineffective
Porcine blood plasma Stability [7]: 79±6%

Compound: NC(=O)c1cccc(-c2cccc(OC(=O)NC3CCCCC3)c2)c1 [URB597, reference compound]
PBS‐buffer pH 7.4 Stability [2]: > 95%
Porcine liver S9 fraction Stability [3]: 80±4%

Compound: COc1ccc2c(c1)c(CC(=O)O)c(C)n2C(=O)c1ccc(Cl)cc1 [indomethacin, reference compound]
Recovery of test compound at the end of the Caco‐2 experiment (Caco‐2 cell monolayer [1]; sum of apical and basolateral compartments after 2 h): quantitative
Permeability coefficient, literature value (Caco‐2 cell monolayer [10]): 2.04e-05 cm/s

Compound: CCCc1nc(C(C)(C)O)c(C(=O)OCc2oc(=O)oc2C)n1Cc1ccc(-c2ccccc2-c2nnn[nH]2)cc1 [olmesartan medoxomil, reference compound]
Hydrolysis in porcine blood plasma ([7]; under the conditions of the stability assay): almost quantitatively hydrolyzed

Compound: CCOC(=O)C1=C[C@@H](OC(CC)CC)[C@H](NC(C)=O)[C@@H](N)C1 [oseltamivir, reference compound]
Degradation in porcine liver homogenate ([3]; percent degraded under the conditions of the stability assay): approximately 90%
